Results: patent US9951035B2, “Selective matrix metalloproteinase inhibitors” (University of Notre Dame du Lac, priority 2014, dated 2018)
Converted amounts (≈) assume the structure as drawn. “And” between values parts separate entries of the source, which are not always exact repeats. Equal entries are not always repeated. “Also recorded” adds a separate entry of the source. Structures can show the parent of a compound that is named as a salt. Where two headings read alike, the source gives them in different places.

Key:
[1] = target: T1, MMP-2 (Homo sapiens (Human), UniProt P08253); test: Enzyme inhibition studies, MMP-2; format: biochemical; conditions: for Ki: slow-binding, Ki calculated from koff/kon, read-out: Ki
T1 sequence (P08253 110-660): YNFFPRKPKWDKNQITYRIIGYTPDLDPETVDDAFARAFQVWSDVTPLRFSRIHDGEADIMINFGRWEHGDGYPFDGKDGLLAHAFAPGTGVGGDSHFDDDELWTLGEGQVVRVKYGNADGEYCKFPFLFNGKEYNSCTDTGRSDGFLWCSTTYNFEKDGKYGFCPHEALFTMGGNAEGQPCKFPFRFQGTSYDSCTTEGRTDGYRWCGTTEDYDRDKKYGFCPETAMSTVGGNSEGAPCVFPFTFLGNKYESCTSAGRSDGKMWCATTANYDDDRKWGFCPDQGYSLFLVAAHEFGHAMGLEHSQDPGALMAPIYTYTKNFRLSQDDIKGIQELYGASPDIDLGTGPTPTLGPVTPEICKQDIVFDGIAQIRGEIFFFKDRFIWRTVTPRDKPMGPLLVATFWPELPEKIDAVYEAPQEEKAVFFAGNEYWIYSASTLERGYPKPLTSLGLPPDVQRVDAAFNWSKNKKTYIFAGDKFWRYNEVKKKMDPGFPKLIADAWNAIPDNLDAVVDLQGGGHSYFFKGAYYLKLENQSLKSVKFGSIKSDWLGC

[2] = in vivo; conditions: male, CD-1, mouse, iv, 5 mg/kg
Description: (§1) Mice (male CD-1, 6-7 weeks old, ˜30 g body weight, specific pathogen free) were purchased from Charles River Laboratories, Inc. (Wilmington, Mass., USA).
(§2) Samples were analyzed by ultraperformance liquid chromatography (UPLC)/(+)electrospray ionization (ESI)-multiple-reaction monitoring (MRM) with a reversed phase C18 column (Acclaim® RSLC 120 C18, 2.2 μm, 120 Å, 2.1×100 mm, Dionex, Sunnyvale, Calif., USA).
(§3) Quantification of the compounds in plasma and brain was obtained using peak-area ratios of the compounds to the internal standard, and the linear-regression parameters obtained from the calibration curves.

[3] = physchem; conditions: water, thermodynamic from solid
[4] = Stability in buffers of the kinetic assays; format: physicochemical
Source text: Human recombinant active MMP-2 and MMP-7, and the catalytic domains of MMP-3 and MMP-14/MT1-MMP were purchased from EMD Chemicals, Inc. (San Diego, Calif., USA); human recombinant catalytic domains of MMP-1, MMP-8, and MMP-9 were purchased from Enzo Life Sciences, Inc. (Farmingdale, N.Y., USA); human recombinant active ADAM9 and ADAM10 were purchased from R&D Systems (Minneapolis, Minn., USA). Fluorogenic substrates MOCAc-Pro-Leu-Gly-Leu-A2pr(Dnp)-Ala-Arg-NH2 (for MMP-2, MMP-7, MMP-9 and MMP-14) and MOCAc-Arg-Pro-Lys-Pro-Val-Glu-Nva-Trp-Arg-Lys(Dnp)-NH2 (for MMP-3) were purchased from Peptides International (Louisville, Ky., USA); Mca-KPLGL-Dpa-AR-NH2 (for MMP-1, MMP-8 and ADAM10) and Mca-PLAQAV-Dpa-RSSSR-NH2 (for ADAM9) were purchased from R&D Systems (Minneapolis, Minn., USA). […] Inhibitor stock solutions (10 mM) were prepared fresh in DMSO before enzyme inhibition assays. We followed the same methodology for enzyme inhibition studies as reported by Page-McCaw et al. (Nat. Rev. Mol. Cell Biol. 2007, 8, 221-233). Enzyme inhibition studies were carried out using a Cary Eclipse fluorescence spectrophotometer (Varian, Walnut Creek, Calif., USA). Compounds 4, 5, 6 and 7 were stable in the buffers that were used in the kinetic assays.

[5] = target: MMP-8 (Homo sapiens (Human), UniProt P22894); test: Enzyme inhibition studies, MMP-8 catalytic domain; format: biochemical
Sequence of MMP-8 (P22894 100-262): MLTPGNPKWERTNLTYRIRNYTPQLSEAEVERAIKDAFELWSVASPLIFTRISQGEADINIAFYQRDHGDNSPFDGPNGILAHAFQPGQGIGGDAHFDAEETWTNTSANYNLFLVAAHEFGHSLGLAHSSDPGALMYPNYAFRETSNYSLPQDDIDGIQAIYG

[6] = target: T2, MMP-9 (Homo sapiens (Human), UniProt P14780); test: Enzyme inhibition studies, MMP-9 catalytic domain; format: biochemical; conditions: for residence time: reciprocal of koff
T2 sequence (P14780 107-444): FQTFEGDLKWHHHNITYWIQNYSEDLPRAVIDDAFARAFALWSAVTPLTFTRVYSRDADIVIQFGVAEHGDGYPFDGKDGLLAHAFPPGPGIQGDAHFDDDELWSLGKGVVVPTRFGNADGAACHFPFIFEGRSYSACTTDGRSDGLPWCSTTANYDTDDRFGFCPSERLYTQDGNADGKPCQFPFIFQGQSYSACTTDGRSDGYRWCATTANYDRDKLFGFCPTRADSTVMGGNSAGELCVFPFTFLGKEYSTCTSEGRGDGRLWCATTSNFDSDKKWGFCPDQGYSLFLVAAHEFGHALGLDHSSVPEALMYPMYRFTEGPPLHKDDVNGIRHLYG

[7] = target: MMP-3 (Homo sapiens (Human), UniProt P08254); test: Enzyme inhibition studies, MMP-3 catalytic domain; format: biochemical
Sequence of MMP-3 (P08254 100-272): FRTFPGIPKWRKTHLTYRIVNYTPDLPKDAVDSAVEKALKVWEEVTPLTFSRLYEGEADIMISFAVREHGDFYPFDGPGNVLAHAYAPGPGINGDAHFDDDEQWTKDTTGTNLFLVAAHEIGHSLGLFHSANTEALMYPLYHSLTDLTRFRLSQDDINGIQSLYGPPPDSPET

[8] = target: ADAM10 (Homo sapiens (Human), UniProt O14672); test: Enzyme inhibition studies, ADAM10; format: biochemical
Sequence of ADAM10 (O14672 214-672): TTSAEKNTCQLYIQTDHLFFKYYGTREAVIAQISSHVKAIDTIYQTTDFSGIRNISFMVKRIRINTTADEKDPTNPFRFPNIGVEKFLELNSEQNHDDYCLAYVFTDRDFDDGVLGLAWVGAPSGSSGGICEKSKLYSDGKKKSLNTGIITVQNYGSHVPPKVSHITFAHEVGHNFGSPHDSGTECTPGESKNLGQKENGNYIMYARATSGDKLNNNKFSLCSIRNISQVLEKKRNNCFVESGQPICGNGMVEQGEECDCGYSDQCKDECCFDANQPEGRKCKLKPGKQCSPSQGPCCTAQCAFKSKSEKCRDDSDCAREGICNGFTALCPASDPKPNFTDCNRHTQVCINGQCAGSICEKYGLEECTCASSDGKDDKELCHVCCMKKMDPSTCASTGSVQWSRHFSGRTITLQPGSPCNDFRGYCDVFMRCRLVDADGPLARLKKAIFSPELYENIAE

[9] = target: MMP-7 (Homo sapiens (Human), UniProt P09237); test: Enzyme inhibition studies, MMP-7; format: biochemical
Sequence of MMP-7 (P09237 95-267): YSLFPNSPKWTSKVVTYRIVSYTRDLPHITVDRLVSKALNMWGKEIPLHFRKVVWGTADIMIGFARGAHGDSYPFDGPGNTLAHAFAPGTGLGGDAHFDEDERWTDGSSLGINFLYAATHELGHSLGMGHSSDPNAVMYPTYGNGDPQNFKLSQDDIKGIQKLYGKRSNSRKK

[10] = mouse, in vivo, iv, 5 mg/kg
Description: as §1, §2, §3

[11] = target: MMP-14 (Homo sapiens (Human), UniProt P50281); test: Enzyme inhibition studies, MMP-14 catalytic domain; format: biochemical
[12] = Pharmacokinetics and brain distribution after single iv dose; conditions: for crossing of the blood-brain barrier: in words
Description: as §1, §2, §3

[13] = target: MMP-1 (Homo sapiens (Human), UniProt P03956); test: Enzyme inhibition studies, MMP-1 catalytic domain; format: biochemical
Sequence of MMP-1 (P03956 98-276): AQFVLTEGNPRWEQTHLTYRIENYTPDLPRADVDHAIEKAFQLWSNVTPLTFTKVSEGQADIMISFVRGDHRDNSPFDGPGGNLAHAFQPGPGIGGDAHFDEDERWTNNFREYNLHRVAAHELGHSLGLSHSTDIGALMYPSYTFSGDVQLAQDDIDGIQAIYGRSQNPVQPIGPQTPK

[14] = target: ADAM9 (Homo sapiens (Human), UniProt Q13443); test: Enzyme inhibition studies, ADAM9; format: biochemical
Sequence of ADAM9 (Q13443 206-697): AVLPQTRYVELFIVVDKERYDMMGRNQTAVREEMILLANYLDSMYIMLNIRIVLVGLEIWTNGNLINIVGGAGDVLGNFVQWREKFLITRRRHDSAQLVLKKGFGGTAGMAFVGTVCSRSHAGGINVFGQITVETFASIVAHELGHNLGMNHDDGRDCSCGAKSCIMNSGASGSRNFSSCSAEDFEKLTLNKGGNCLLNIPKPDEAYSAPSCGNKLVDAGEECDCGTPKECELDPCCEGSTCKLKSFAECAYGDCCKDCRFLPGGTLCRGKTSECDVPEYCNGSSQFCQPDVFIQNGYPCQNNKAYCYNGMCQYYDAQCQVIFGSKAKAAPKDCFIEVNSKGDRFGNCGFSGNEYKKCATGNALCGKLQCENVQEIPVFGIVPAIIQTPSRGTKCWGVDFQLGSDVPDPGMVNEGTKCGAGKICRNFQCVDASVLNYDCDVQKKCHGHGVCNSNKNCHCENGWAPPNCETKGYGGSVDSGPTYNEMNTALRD

[15] = Water solubility (filtrate of saturated aqueous solution, UPLC-MRM)
[16] = target: T2, MMP-9; conditions: literature / previously reported; cited from earlier work
[17] = target: T1, MMP-2; conditions: literature / previously reported; cited from earlier work
[18] = catalytic domain, slow-binding, Ki from koff/kon, read-out: Ki
[19] = 2 min after 5 mg/kg single iv, mice
[20] = 5 min after 5 mg/kg single iv, mice
[21] = 10 min after 5 mg/kg single iv, mice
[22] = 30 min after 5 mg/kg single iv, mice
[23] = 60 min after 5 mg/kg single iv, mice
[24] = 90 min after 5 mg/kg single iv, mice
[25] = 120 min after 5 mg/kg single iv, mice
[26] = 240 min after 5 mg/kg single iv, mice
[27] = 2 min after 5 mg/kg single iv, mice, HCl salt
[28] = male, CD-1, mouse, in vivo, 5 mg/kg
[29] = male, CD-1, mouse, in vivo, iv, 5 mg/kg
[30] = plasma, 5 mg/kg single iv, mice

## NCc1nc(-c2ccc(Oc3ccc(S(=O)(=O)CC4CS4)cc3)cc2)no1 (centres unmarked) [Compound 4, (3-(4-(4-((Thiiran-2-ylmethyl)sulfonyl)phenoxy)phenyl)-1,2,4-oxadiazol-5-yl)methanamine.HCl salt]
[1]
  kon: 521 ± 22 M⁻¹ s⁻¹
  Ki: 630 ± 60 nM
[1]; read-out: 10^3 koff
  koff: 0.33 ± 0.027 s⁻¹
[1]; reciprocal of koff
  residence time: 50.5 ± 4.1 min
[2]
  AUC(0-inf): 13.1 µM·h
  AUC(0-t): 13 µM·h
  Vd: 0.0213 L/kg
  clearance: 15.8 mL/min/kg
[3]
  solubility: 610 µg/mL
[4]
  stability in the buffers used in the kinetic assays: stable
[5]
  inhibition at 50 µM: 24%
[6]
  kon: 32 ± 2.3 M⁻¹ s⁻¹
  residence time: 15.2 ± 0.4 min
[6]; [18]
  Ki: 34000 nM
[6]; read-out: 10^3 koff
  koff: 1.1 ± 0.03 s⁻¹
[6]; read-out: residence time
  residence time: 15.2 to 47.4 min
[7]; at 100 μM
  inhibition at 100 µM: 17%
[8]; at 100 μM
  inhibition at 100 µM: 1%
[9]
  inhibition at 100 µM: 8%
[10]
  AUC0-last: 108 pmol·min/mg
  AUC0-∞: 108 pmol·min/mg
  AUCbrain/AUCplasma: 0.138
[11]
  kon: 121 ± 11 M⁻¹ s⁻¹
[11]; [18]
  Ki: 9400 nM
[11]; read-out: 10^3 koff
  koff: 1.14 ± 0.09 s⁻¹
[11]; reciprocal of koff
  residence time: 14.6 ± 1.1 min
[12]; 5 mg/kg single iv, mice
  clearance as % of hepatic blood flow: 19%
[12]; [19]
  Brain concentration: 9.76±7.24 pmol/mg tissue
  Plasma concentration: 62400 ± 61600 nM
[12]; [20]
  Brain concentration: 5.98 ± 2.94 pmol/mg tissue
  Plasma concentration: 2190 ± 90 nM
[12]; [21]
  Brain concentration: 3.27 ± 0.14 pmol/mg tissue
  Plasma concentration: 2140 ± 1510 nM
[12]; [22]
  Brain concentration: 0.249 ± 0.127 pmol/mg tissue
  Plasma concentration: 97 ± 90 nM and 97 ± 92 nM
[12]; [23]
  Brain concentration: 0.0253 ± 0.0221 pmol/mg tissue
  Plasma concentration: 86.3 ± 30.3 nM
[12]; [24]
  Brain concentration: 0.00548 ± 0.00476 pmol/mg tissue
  Plasma concentration: 71.6 ± 50 nM
[12]; [25]
  Plasma concentration: 31.8 ± 31.1 nM
[12]; [26]
  Plasma concentration: 14.9 ± 12.9 nM
[12]
  crossing of the blood-brain barrier: cross the blood-brain barrier
[13]
  inhibition at 100 µM: 8%
[14]; at 100 μM
  inhibition at 100 µM: 5%

## N=C(N)Nc1ccc(Oc2ccc(S(=O)(=O)CC3CS3)cc2)cc1 (centres unmarked) [Compound 7, 1-(4-(4-((Thiiran-2-ylmethyl)sulfonyl)phenoxy)phenyl)guanidine HCl salt]
[4]; in words
  stability in the buffers used in the kinetic assays: stable
[7]
  Ki: 19000 ± 1000 nM
[8]; at 100 μM
  inhibition at 100 µM: 25%
[9]
  inhibition at 100 µM: 4%
[11]
  Ki: 40 ± 2 nM
[12]; 5 mg/kg single iv, mice
  time brain levels above Ki for MMP-2: 120 min
  time brain levels above Ki for MMP-9: 30 min
  time plasma levels above Ki for MMP-2: 90 min
  time plasma levels above Ki for MMP-9: 60 min
[12]; [27]
  Brain concentration: 0.577±0.560 pmol/mg tissue
  Plasma concentration: 12600 ± 10900 nM
[12]; [20]
  Brain concentration: 0.476 ± 0.470 pmol/mg tissue
[12]; [21]
  Brain concentration: 0.216 ± 0.071 pmol/mg tissue
[12]; [22]
  Brain concentration: 0.117 ± 0.024 pmol/mg tissue
[12]; [23]
  Brain concentration: 0.0228 ± 0.0033 pmol/mg tissue
[12]; [24]
  Brain concentration: 0.0409 ± 0.0155 pmol/mg tissue
[12]; [25]
  Brain concentration: 0.0222 ± 0.0072 pmol/mg tissue
[12]; [26]
  Brain concentration: 0.0161 ± 0.0035 pmol/mg tissue
[12]; brain, 5 mg/kg single iv, mice
  AUC0-last: 14.3 pmol·min/mg
  AUC0-∞: 17.4 pmol·min/mg
  t1/2α: 47 min
  t1/2β: 133 min
[12]
  crossing of the blood-brain barrier: cross the blood-brain barrier
[12]; [28]
  concentration at 2 min: 12600 ± 10900 nM
  concentration at 5 min: 4370 ± 2630 nM
  concentration at 10 min: 3920 ± 780 nM
  concentration at 30 min: 482 ± 229 nM
  concentration at 60 min: 119 ± 51 nM
  concentration at 90 min: 22 ± 8 nM
  concentration at 120 min: 6.3 ± 4.9 nM
  concentration at 240 min: 3.2 ± 2.66 nM
[12]; [29]
  AUC(0-inf): 2.13 µM·h
  AUC(0-t): 2.13 µM·h
  Kp: 0.136
  Vd: 1.08 L/kg
  clearance: 107 mL/min/kg
[12]; [30]
  CL: 107 mL/min/kg
  t1/2α: 5.22 min
  t1/2β: 64.2 min
[13]
  inhibition at 100 µM: 4%
[14]; at 100 μM
  inhibition at 100 µM: 14%
[15]
  Aq. solubility: 32000 µg/mL
[15]; thermodynamic from solid
  solubility: 32000 µg/mL

## CC(=O)NCc1ccc(Oc2ccc(S(=O)(=O)CC3CS3)cc2)cc1 (centres unmarked) [Compound 6, N-(4-(4-((Thiiran-2-ylmethyl)sulfonyl)phenoxy)benzyl)acetamide]
[1]
  Ki: 230 nM and 234 nM
[2]
  AUC(0-inf): 7.28 µM·h
  AUC(0-t): 7.25 µM·h
  Vd: 0.329 L/kg
  clearance: 30.3 mL/min/kg
[3]
  solubility: 25 µg/mL (≈ 66.2 µM)
[4]
  stability in the buffers used in the kinetic assays: stable
[5]; Ki, catalytic domain, linear noncompetitive or linear competitive mechanism as footnoted
  Ki: 690 nM and 692 nM
[6]; at 50 μM
  inhibition at 50 µM: 23%
[6]; at 50 μM, listed as ND-378
  Inhibition: Ki (MMP-9) 23% inhibition at 50 μM
[7]; at 100 μM
  inhibition at 100 µM: 14%
[7]; at 100 μM, listed as ND-378
  Inhibition: Ki (MMP-3) 14% inhibition at 100 μM
[8]; at 100 μM
  inhibition at 100 µM: 8%
[8]; at 100 μM, listed as ND-378
  Inhibition: Ki (ADAM-10) 8% inhibition at 100 μM
[9]
  inhibition at 100 µM: 5%
[9]; at 100 μM, listed as ND-378
  Inhibition: Ki (MMP-7) 4.7% inhibition at 100 μM
[10]
  AUC0-last: 66.5 pmol·min/mg
  AUC0-∞: 67.2 pmol·min/mg
[11]; at 50 μM
  inhibition at 50 µM: 23%
[11]; at 50 μM, listed as ND-378
  Inhibition: Ki (MMP-14) 23% inhibition at 50 μM
[12]; 5 mg/kg single iv, mice
  clearance as % of hepatic blood flow: 35%
  time brain levels above Ki for MMP-2: 30 min
  time plasma levels above Ki for MMP-2: 30 min
[12]; [19]
  Brain concentration: 5.98±1.48 pmol/mg tissue
  Plasma concentration: 35000 ± 7700 nM
[12]; [20]
  Brain concentration: 4.90 ± 4.81 pmol/mg tissue
[12]; [21]
  Brain concentration: 0.954 ± 0.473 pmol/mg tissue
[12]; [22]
  Brain concentration: 0.231 ± 0.122 pmol/mg tissue
[12]; [23]
  Brain concentration: 0.0544 ± 0.0539 pmol/mg tissue
[12]; [24]
  Brain concentration: 0.0263 ± 0.0228 pmol/mg tissue
[12]; brain, 5 mg/kg single iv, mice
  t1/2α: 2.89 min
  t1/2β: 19.1 min
[12]; listed as ND-378
  crossing of the blood-brain barrier: cross the blood-brain barrier; also recorded: crosses the BBB
[12]; [28]
  concentration at 2 min: 35000 ± 7690 nM
  concentration at 5 min: 20300 ± 2800 nM
  concentration at 10 min: 14100 ± 5000 nM
  concentration at 30 min: 1640 ± 480 nM
  concentration at 60 min: 97.9 ± 6.5 nM
  concentration at 90 min: 82.7 ± 26.2 nM
  concentration at 120 min: 29.7 ± 16.8 nM
  concentration at 240 min: 19.3 ± 3.7 nM
[12]; [29]
  Kp: 0.154
[12]; [30]
  t1/2α: 6.31 min
  t1/2β: 86.6 min
[13]
  inhibition at 100 µM: 37%
[13]; at 100 μM, listed as ND-378
  Inhibition: Ki (MMP-1) 37% inhibition at 100 μM
[14]; at 100 μM
  inhibition at 100 µM: 31%
[14]; at 100 μM, listed as ND-378
  Inhibition: Ki (ADAM-9) 31% inhibition at 100 μM

## COC(=O)Nc1ccc(Oc2ccc(S(=O)(=O)CC3CS3)cc2)cc1 (centres unmarked) [ND-380]
[6]; read-out: MMP-9 Ki
  Ki: 180 ± 30 nM

## TIMP-1: tissue inhibitor of metalloproteinase 1, protein inhibitor of MMPs
[16]
  residence time bound to MMP-9: 8 min
[17]
  residence time bound to MMP-2: 7 min and 6.9 min

## O=S(=O)(CC1CS1)c1ccc(Oc2ccccc2)cc1 (centres unmarked) [Compound 1, reference compound]
[8]; at 20 μM, read-out: Inhibition
  inhibition at 20 µM: 34%
[14]; at 20 μM, read-out: Inhibition
  inhibition at 20 µM: 36%
